Literature values, collected in patent publication US20220054371A1, “TOOTH CLEANING COMPOSITION, TOOTH CLEANING AGENT, DENTAL CALCULUS REMOVAL ACCELERATOR, AND TOOTH CLEANING METHOD” (TOKUYAMA DENTAL CORPORATION, priority 2018, published 2022).

Settings: 2.0 mg dental calculi in 1 ml of 10% aqueous solution, pH 3.1, 14 minutes

CC(O)C(=O)O (stereo not shown) [lactic acid]
weight reduction of dental calculi: 1.0 mg
